Measured values as given in patent US10065934B2, “Substituted urea derivatives and pharmaceutical uses thereof” (SUNSHINE LAKE PHARMA CO., LTD., priority 2014, dated 2018).
pIC50: −log10 of the molar value. Where two headings read alike, the source gives them in different places. Each block holds one compound with its values, some of them ahead of it.

Assays:
[1] = tested on: MV-4-11 cell; assay: In vitro cytology inhibitory activity (MV-4-11 cell proliferation, cell viability luminescence); format: cell-based; conditions: Homo sapiens, MV4-11; MV-4-11 cells, 72 h incubation
Procedure: Cell assay condition was shown below:
a. A complete medium was prepared and mixed well. b. Cell was recovered, and cell lines of between about two generations in good condition of growth were selected. c. The cell culture flasks were removed from the incubator, and the labeled cell name on the bottles, culture medium type and cell algebra were checked. d. The cell suspension was pipette into a centrifuge tube, and centrifuged at 800-1000 rpm for 3-5 minutes. e. Cell supernatant of the centrifuge tube was aspirated. f. Appropriate volume of culture medium was added into the centrifuge tube, and the cells were resuspended by gentle pipetting uniform. g. Vi-Cell XR cytometer was used for count. h. The cell suspension was adjusted to the appropriate concentration. i. The cell suspension was added to the bottom wall of the white 96-well plate, 100 microliters/well. Cells name, kind of board density and date were detailed labeled, and the culture plate was placed in CO2 incubator overnight.
2. Preparation and Addition of the Test Compounds
i) Preparation of test compound plates by diluting to 10 concentrations with DMSO: first, the test compound stock solution was prepared by dissolving a weighed compound in DMSO to a concentration of 10 mM, and then diluted to the concentration of 4 mM, which was then diluted to the concentration of 0.4 mM used as the highest concentration for testing with DMSO. The highest concentration was sequentially followed by 3-fold dilution for a total of 10 concentrations. Staurosporine was the positive control drug. ii) Addition of test compounds: a. 0.5 μL of test compound prepared above in compound plate was added into the cell culture plate that had been incubated overnight. Then the culture plate was incubated in an incubator at 37° C. for 72 hours.
3. Detection and Analysis
a. 72 hours after the compound treatment, cells was observed under an inverted microscope morphology, and cell growth state in DMSO control well was normal, there was no contamination. b. The cell culture plate was placed in equilibrium at room temperature for 30 minutes. c. The cell viability detection reagent at 100 μL/well was placed into culture plate. d. The mixture in culture plate was mixed two minutes in the vibration plate machine to induce cell lysis. e. 96-well plate was placed for 10 minutes at room temperature, making it stable luminescent signal. f. White base film was pasted on the bottom of the culture plate, and the plate was tested by using Flexstation3 (related to: light, integration time 500 ms). g. Experimental results were recorded and analyzed.

[2] = biological target: T1, FLT3 kinase (Homo sapiens, UniProt P36888); assay: In vitro enzymatic inhibitory activity (kinase reaction, FAM-labeled peptide); format: biochemical; conditions: in vitro enzymatic inhibition
T1 sequence (P36888 27-993): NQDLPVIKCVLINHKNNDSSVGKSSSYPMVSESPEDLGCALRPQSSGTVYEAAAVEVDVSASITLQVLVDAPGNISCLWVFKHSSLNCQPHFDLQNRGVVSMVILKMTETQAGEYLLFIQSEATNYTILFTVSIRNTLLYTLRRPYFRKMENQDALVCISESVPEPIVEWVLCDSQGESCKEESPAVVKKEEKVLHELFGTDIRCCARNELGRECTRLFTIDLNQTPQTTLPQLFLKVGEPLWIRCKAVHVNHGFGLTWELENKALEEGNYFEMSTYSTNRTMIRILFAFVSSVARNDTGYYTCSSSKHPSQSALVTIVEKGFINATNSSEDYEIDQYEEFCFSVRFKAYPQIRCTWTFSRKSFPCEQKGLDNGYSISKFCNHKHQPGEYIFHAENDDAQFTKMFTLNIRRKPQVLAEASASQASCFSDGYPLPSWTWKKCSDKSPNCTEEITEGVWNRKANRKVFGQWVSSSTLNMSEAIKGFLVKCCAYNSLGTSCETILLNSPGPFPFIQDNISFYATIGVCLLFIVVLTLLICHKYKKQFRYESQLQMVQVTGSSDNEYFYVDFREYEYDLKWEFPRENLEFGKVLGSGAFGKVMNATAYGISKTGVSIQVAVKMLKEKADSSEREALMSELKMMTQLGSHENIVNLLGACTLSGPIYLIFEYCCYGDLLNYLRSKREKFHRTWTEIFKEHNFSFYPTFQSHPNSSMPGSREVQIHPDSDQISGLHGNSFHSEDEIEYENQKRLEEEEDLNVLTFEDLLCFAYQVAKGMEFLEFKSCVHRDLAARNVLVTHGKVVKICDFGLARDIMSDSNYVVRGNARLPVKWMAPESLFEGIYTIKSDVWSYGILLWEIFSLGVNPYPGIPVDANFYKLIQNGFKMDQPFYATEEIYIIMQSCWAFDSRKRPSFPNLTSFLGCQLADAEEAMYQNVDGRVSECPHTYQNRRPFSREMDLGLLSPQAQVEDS

[3] = Evaluation of pharmacokinetic activity in male SD rats (iv and oral); format: in vivo; conditions: for Vd: read-out: Vss; for bioavailability: po 5 mg/kg vs iv 1 or 2 mg/kg
Procedure: 1. Preparation of the Test Compound Solutions
The test compound solutions were prepared using appropriate amounts of 5% DMSO, 5% KolliphorHS15 and 90% Saline to dissolve each compound completely.
140-190 g male SD rats were randomly divided into two groups. One group was administered through intravenous drug delivery with the dosage of 1.0 or 2.0 mg/kg, and the other group was administered by oral with the dosage of 5.0 mg/kg. For intravenous administration, caudal vein blood samples at the time points of 0.0833, 0.25, 0.5, 1.0, 2.0, 4.0, 6.0, 8.0 and 24 h were collected after drug administration (the time point of drug administration was set as 0 h); and for oral administration, caudal vein blood samples at the time points of 0.25, 0.5, 1.0, 2.0, 4.0, 6.0, 8.0 and 24 h were collected after drug administration (the time point of drug administration was set as 0 h). Appropriate range of standard curve was established according to the sample concentration, and the test compound concentrations in plasma sample were measured by LC-MS/MS analysis. Pharmacokinetic parameters were calculated by non-compartmental method using WinNonLin 6.3 software based on drug concentration-time curves.

pIC50 [1]: 8.28
pIC50 [2]: 7.41
T1/2 ([3]; po, 5 mg/kg): 5.86 h
AUC(0-inf) ([3]; rat, plasma, iv, 2 mg/kg): 6940 ng·h/mL
AUC(0-t) ([3]; rat, plasma, iv, 2 mg/kg): 6570 ng·h/mL
Tmax ([3]; rat, plasma, iv, 2 mg/kg): 0.08 h
half-life ([3]; rat, plasma, iv, 2 mg/kg): 6.23 h
Cmax ([3]; rat, plasma, iv, 2 mg/kg, read-out: Cmax): 2690 ng/mL
Vd ([3]; rat, plasma, iv, 2 mg/kg): 1.83 L/kg
bioavailability ([3]; rat, plasma): 69.3%
AUC(0-inf) ([3]; rat, plasma, po, 5 mg/kg): 12000 ng·h/mL
AUC(0-t) ([3]; rat, plasma, po, 5 mg/kg): 11300 ng·h/mL
Tmax ([3]; rat, plasma, po, 5 mg/kg): 2.67 h
Cmax ([3]; rat, plasma, po, 5 mg/kg, read-out: Cmax): 1370 ng/mL
Compound: CC(C)(C)c1cc(NC(=O)Nc2ccc(C#Cc3ccc(OCCCN4CCOCC4)cc3F)cc2)no1 [Example 4, 1-(5-(tert-Butyl)isoxazol-3-yl)-3-(4-((2-fluoro-4-(3-morpholinopropoxy)phenyl)ethynyl)phenyl) urea]

pIC50 [1]: 8.51
pIC50 [2]: 7.03
Compound: CC(C)(C)c1cc(NC(=O)Nc2ccc(C#Cc3cnn4ccc(OCCCN5CCOCC5)nc34)cc2)no1 [Example 6, 1-(5-(tert-Butyl)isoxazol-3-yl)-3-(4-((5-(3-morpholinopropoxy)pyrazolo[1,5-a]pyrimidin-3-yl)ethynyl)phenyl)urea]

pIC50 [1]: 8.47
pIC50 [2]: 7.21
Compound: CC(C)(C)c1cc(NC(=O)Nc2ccc(C#Cc3ccc(OCCCN4CCC5(COC5)C4)cc3F)cc2)no1 [Example 8, 1-(4-((4-(3-(2-Oxa-6-azaspiro[3.4]octan-6-yl)propoxy)-2-fluorophenyl)ethynyl)phenyl)-3-(5-(tert-butyl)isoxazol-3-yl)urea]

pIC50 [1]: 8.80
pIC50 [2]: 7.55
Compound: CN1CCN(CCOc2ccc(C#Cc3ccc(NC(=O)Nc4cc(C(C)(C)C)on4)cc3)cc2)CC1 [Example 12, 1-(5-(tert-Butyl)isoxazol-3-yl)-3-(4-((4-(2-(4-methylpiperazin-1-yl)ethoxy)phenyl)ethynyl)phenyl)urea]

pIC50 [1]: 8.62
pIC50 [2]: 7.64
Compound: CN1CCN(CCCOc2ccc(C#Cc3ccc(NC(=O)Nc4cc(C(C)(C)C)on4)cc3)cc2)CC1 [Example 13, 1-(5-(tert-Butyl)isoxazol-3-yl)-3-(4-((4-(3-(4-methylpiperazin-1-yl)propoxy)phenyl)ethynyl)phenyl)urea]

pIC50 [1]: 7.94
pIC50 [2]: 7.14
Compound: CN(C)C1CCN(CCOc2ccc(C#Cc3ccc(NC(=O)Nc4cc(C(C)(C)C)on4)cc3)cc2)CC1 [Example 14, 1-(5-(tert-Butyl)isoxazol-3-yl)-3-(4-((4-(2-(4-(dimethylamino)piperidin-1-yl)ethoxy)phenyl)ethynyl)phenyl)urea]

pIC50 [2]: 6.99
Compound: CC(C)(C)c1cc(NC(=O)Nc2ccc(C#Cc3cnn4c(OCCCN5CCOCC5)ccnc34)cc2)no1 [Example 15, 1-(5-(tert-Butyl)isoxazol-3-yl)-3-(4-((7-(3-morpholinopropoxy)pyrazolo[1,5-a]pyrimidin-3-yl)ethynyl)phenyl)urea]

pIC50 [2]: 6.96
Compound: COc1cc(C#Cc2ccc(NC(=O)Nc3cc(C(C)(C)C)on3)cc2)ccc1OCCCN1CCOCC1 [Example 20, 1-(5-(tert-Butyl)isoxazol-3-yl)-3-(4-((3-methoxy-4-(3-morpholinopropoxy)phenyl)ethynyl)phenyl)urea]

pIC50 [2]: 6.80
AUClast ([3]; po, 5 mg/kg): 6770 ng·h/mL
Cmax ([3]; po, 5 mg/kg): 862 ng/mL
T1/2 ([3]; po, 5 mg/kg): 3.9 h
AUC(0-inf) ([3]; rat, plasma, iv, 1 mg/kg): 2160 ng·h/mL
AUC(0-t) ([3]; rat, plasma, iv, 1 mg/kg): 2130 ng·h/mL
Tmax ([3]; rat, plasma, iv, 1 mg/kg): 0.083 h
half-life ([3]; rat, plasma, iv, 1 mg/kg): 4.51 h
Cmax ([3]; rat, plasma, iv, 1 mg/kg, read-out: Cmax): 1340 ng/mL
Vd ([3]; rat, plasma, iv, 1 mg/kg): 1.69 L/kg
bioavailability ([3]; rat, plasma): 63.6%
AUC(0-inf) ([3]; rat, plasma, po, 5 mg/kg): 6870 ng·h/mL
Tmax ([3]; rat, plasma, po, 5 mg/kg): 4 h
Compound: CC(C)(C)c1cc(NC(=O)Nc2ccc(C#Cc3ccc(OCCN4C[C@@H]5OCCO[C@@H]5C4)cc3)cc2)no1 [Example 24, 1-(5-(tert-Butyl)isoxazol-3-yl)-3-(4-((4-(2-((4aR,7aS)-tetrahydro-2H-[1,4]dioxino[2,3-c]pyrro 1-6(3H)-yl)ethoxy)phenyl)ethynyl)phenyl)urea]

pIC50 [2]: 7.08
Compound: CC(C)(C)c1cc(NC(=O)Nc2ccc(C#Cc3ccc(OCCN4CCOCC4)cc3)cc2)no1 [Example 25, 1-(5-(tert-Butyl)isoxazol-3-yl)-3-(4-((4-(2-morpholinoethoxy)phenyl)ethynyl)phenyl)urea]
